Laboratory results: patent US6239171A, “Tocotrienols and tocotrienol-like compounds and methods for their use” (Lipogenics, Inc., priority 1998, dated 2001)

Key:
Assay type in all cases: in vivo, chicken
chickens [1] = experiment: Serum cholesterol, apolipoproteins, triglycerides and glucose in chickens fed supplemented diets; details: 4 weeks; for APO A1, percentage of control / APO A1 in serum / APO B in serum / APO B, percentage of control / DL-Cholesterol/Total Cholesterol / DL-Cholesterol/Total Cholesterol, percentage of control / Glucose in serum / Glucose, percentage of control / HDL-Cholesterol in serum / HDL-Cholesterol, percentage of control / HDL-Cholesterol/LDL-Cholesterol / HDL-Cholesterol/LDL-Cholesterol, percentage of control / LDL-Cholesterol in serum / LDL-Cholesterol, percentage of control / Total Cholesterol in serum / Total Cholesterol, percentage of control / Triglycerides in serum / Triglycerides, percentage of control: control diet + 50 ppm
Excerpt: All assays conducted on chicken or swine serum were done following the protocols described in A. A. Qureshi et al., "Lowering Of Serum Cholesterol In Hypercholesterolemic Humans By Tocotrienols" (Palmvitee), Am. J. Clin. Nutr., 53, pp. 1021S-26S (1991). All enzymatic assays were done following the protocols described in A. A. Qureshi et al., "Effects of Cereals and Culture Filtrate of Trichoderma viride on Lipid Metabolism of Swine", Lipids, 17, pp. 924 (1982). Plasma insulin, glucagon and TNF levels were measured using radioinnumoassay kits from Ventrex Laboratories, Inc. (Portland, Me.), ICN Biomedicals, Inc. (Costa Mesa, Calif.) and Genzyme Corp. (Cambridge, Mass.), respectively. […]
Each group of 6 chickens (6-week old female while leghorn) was administered the chick mash diet described in Example 5, supplemented with one of three different amounts of waxes (sterols), 50 ppm of TRF (prepared as in Example 2) or 5% equivalent of the methanol insoluble fraction Louisiana rice bran oil. […] The birds were fasted for a period of 14 hours prior to sacrifice (at 0800 hours). […]

HMG-CoA reductase = biological target: T1, HMG-CoA reductase (Homo sapiens, UniProt P04035); experiment: Hepatic HMG-CoA reductase activity in chickens fed supplemented diets; details: 4 weeks; for HMG-CoA Reductase, percentage of control: control diet + 50 ppm
T1 construct: hepatocytes isolated from livers of 8-week old female chickens; endogenous in cells; host or cells: primary chicken hepatocytes
T1 sequence (P04035 1-888): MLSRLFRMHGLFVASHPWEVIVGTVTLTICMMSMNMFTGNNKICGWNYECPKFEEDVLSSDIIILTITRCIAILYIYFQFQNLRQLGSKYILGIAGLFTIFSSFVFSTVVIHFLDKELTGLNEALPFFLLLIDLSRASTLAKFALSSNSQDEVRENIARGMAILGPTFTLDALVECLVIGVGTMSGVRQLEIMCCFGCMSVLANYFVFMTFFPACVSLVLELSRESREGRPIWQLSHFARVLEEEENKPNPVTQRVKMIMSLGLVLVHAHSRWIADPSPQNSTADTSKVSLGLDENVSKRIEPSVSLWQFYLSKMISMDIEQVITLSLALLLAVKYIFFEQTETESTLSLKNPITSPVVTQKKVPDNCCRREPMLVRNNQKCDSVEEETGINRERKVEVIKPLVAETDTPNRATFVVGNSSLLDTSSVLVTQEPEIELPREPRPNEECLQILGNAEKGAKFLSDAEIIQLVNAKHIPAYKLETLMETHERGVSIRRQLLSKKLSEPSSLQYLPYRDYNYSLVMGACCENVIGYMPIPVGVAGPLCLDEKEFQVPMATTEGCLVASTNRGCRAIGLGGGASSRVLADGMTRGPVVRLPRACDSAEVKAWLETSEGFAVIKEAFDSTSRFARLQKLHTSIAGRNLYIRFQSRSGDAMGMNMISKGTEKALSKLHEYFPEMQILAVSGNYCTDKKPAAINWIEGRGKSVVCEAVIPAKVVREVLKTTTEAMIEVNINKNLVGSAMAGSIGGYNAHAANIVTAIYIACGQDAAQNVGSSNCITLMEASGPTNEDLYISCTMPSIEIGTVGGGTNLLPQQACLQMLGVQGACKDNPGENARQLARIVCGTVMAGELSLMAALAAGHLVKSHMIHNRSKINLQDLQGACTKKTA
Protocol: This example measured the effects of the TRF and its components on the hepatic enzymatic activity of HMG-CoA reductase and cholesterol 7α-hydroxylase. […] The amount of feed consumed ranged from 11.19-11.60 g per chicken and the feeding period was 4 weeks. The birds were fasted for a period of 36 hours and refed for 48 hours prior to sacrifice (at 0800 hours).

chickens [2] = experiment: Plasma thromboxane B2 and platelet factor 4 in chickens fed supplemented diets; details: control diet + 50 ppm, 4 weeks
Excerpt: We next measured the effects of TRF and its components on serum levels of apolipoprotein (a)1, apolipoprotein B, triglycerides and glucose and the plasma levels of thromboxane B2 and platelet factor 4.

SMILES | APO A1, percentage of control (chickens [1]) [%] | APO A1 in serum (chickens [1]) [mg/100 ml] | APO B in serum (chickens [1]) [mg/100 ml] | APO B, percentage of control (chickens [1]) [%] | DL-Cholesterol/Total Cholesterol (chickens [1]) | DL-Cholesterol/Total Cholesterol, percentage of control (chickens [1]) [%] | Glucose in serum (chickens [1]) [mg/100 ml] | Glucose, percentage of control (chickens [1]) [%] | HDL-Cholesterol in serum (chickens [1]) [mg/dL] | HDL-Cholesterol, percentage of control (chickens [1]) [%] | HDL-Cholesterol/LDL-Cholesterol (chickens [1]) | HDL-Cholesterol/LDL-Cholesterol, percentage of control (chickens [1]) [%] | LDL-Cholesterol in serum (chickens [1]) [mg/dL] | LDL-Cholesterol, percentage of control (chickens [1]) [%] | Total Cholesterol in serum (chickens [1]) [mg/dL] | Total Cholesterol, percentage of control (chickens [1]) [%] | Triglycerides in serum (chickens [1]) [mg/100 ml] | Triglycerides, percentage of control (chickens [1]) [%] | HMG-CoA Reductase, percentage of control (HMG-CoA reductase) [%] | Platelet Factor 4 (chickens [2]) [ng/mL] | also measured
CC(C)=CCC/C(C)=C/CC/C(C)=C/CCC1CCc2cc(O)ccc2O1 (stereo not drawn) [P25, 3,4-dihydro-2-(4,8,12-trimethyltrideca-3'(E),7'(E),11'-trienyl)-2H-1-benzopyran-6-ol] | 98.78 | 138.70 | 25.20 | 76.13 | 0.73 | 125.30 | 196.10 | 87.43 | 70.12 ± 1.25 | 53.82 | 3.05 | 200.60 | 23.00 ± 1.27 | 41.77 | 95.51 ± 1.11 | 66.90 | 54.65 | 73.82 | 71.33 | 7.27 | increase in the HDL-/LDL-cholesterol ratio (chickens [1]; 50 ppm in diet): > 100%; rank as cholesterol inhibitor among compounds tested (in words) (chickens [1]; 50 ppm in diet): most potent cholesterol inhibitors; reduction of serum cholesterol (chickens [1]; 50 ppm in diet): ~33%; reduction of enzymatic activity of HMG-CoA reductase (HMG-CoA reductase; 50 ppm in diet): about 28%; Platelet Factor 4, percentage of control (chickens [2]): 55.54%; Thromboxane B2 (chickens [2]): 16.42 pg/mL; Thromboxane B2, percentage of control (chickens [2]): 63.54%
CC(C)=CCC/C(C)=C/CC/C(C)=C/CCC1(C)CCc2cc(O)c(C)c(C)c2O1 (stereo not drawn) [γ-T3, γ-tocotrienol, reference compound] | 99.57 | 139.80 | 29.53 | 89.21 | 0.67 | 114.50 | 208.70 | 93.05 | 78.39 ± 0.96 | 93.70 | 2.09 | 137.50 | 37.52 ± 0.81 | 68.14 | 116.86 ± 1.47 | 81.85 | 61.07 | 82.49 | 78.32 | 8.36 | Platelet Factor 4, percentage of control (chickens [2]): 63.87%; Thromboxane B2 (chickens [2]): 19.22 pg/mL; Thromboxane B2, percentage of control (chickens [2]): 74.38%
CC(C)=CCC/C(C)=C/CC/C(C)=C/CCC1(C)CCc2cc(O)ccc2O1 (stereo not drawn) [P21, 3,4-dihydro-2-methyl-2-(4,8,12-trimethyltrideca-3' (E),7'(E),11'-trienyl)-2H-1-benzopyran-6-ol] | 98.79 | 138.4 | 25.40 | 76.74 | 0.74 | 126.50 | 198.80 | 88.63 | 68.88 ± 1.52 | 82.33 | 3.11 | 204.60 | 22.16 ± 0.57 | 40.25 | 92.91 ± 1.27 | 65.08 | 56.22 | 75.94 | 72.83 | 7.76 | increase in the HDL-/LDL-cholesterol ratio (chickens [1]; 50 ppm in diet): > 100%; rank as cholesterol inhibitor among compounds tested (in words) (chickens [1]; 50 ppm in diet): most potent cholesterol inhibitors; Platelet Factor 4, percentage of control (chickens [2]): 59.28%; Thromboxane B2 (chickens [2]): 16.74 pg/mL; Thromboxane B2, percentage of control (chickens [2]): 64.78%
